This passage reports Ki results from PMC7023381, “Sulfonamide Inhibition Profile of the β-Carbonic Anhydrase from Malassezia restricta, An Opportunistic Pathogen Triggering Scalp Conditions” (Metabolites, 2020).

The target of one test is T1, MreCA (Malassezia restricta, UniProt A0A3G2S4B9).
T1 construct: gene can; recombinant from synthetic gene in pET100D-Topo, E. coli BL21(DE3) codon plus; N-terminal His6-tag fusion, 27 kDa on SDS-PAGE; no tag cleavage told
T1 sequence (A0A3G2S4B9 1-238): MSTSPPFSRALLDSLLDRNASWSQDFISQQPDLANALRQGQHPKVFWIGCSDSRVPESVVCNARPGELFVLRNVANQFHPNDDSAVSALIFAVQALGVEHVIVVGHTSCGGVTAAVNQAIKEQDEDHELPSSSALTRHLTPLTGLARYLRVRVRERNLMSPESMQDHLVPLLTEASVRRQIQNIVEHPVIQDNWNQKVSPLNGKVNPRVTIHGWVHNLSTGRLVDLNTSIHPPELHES
Briefly: stopped-flow CO2 hydrase assay. The test is classed as biochemical.
Settings: not given
In the case of `NCCc1ccc(S(N)(=O)=O)cc1` [compound 6, 6], the Ki is > 10 µM.

Still in this test, the particulars now being: read-out: MreCA.
`CCN[C@H]1CN(CCCOC)S(=O)(=O)c2sc(S(N)(=O)=O)cc21` [BRZ]: the Ki is 0.7 µM.
Take `NS(=O)(=O)c1nnc(NS(=O)(=O)c2ccccc2)s1` [BZA]: the Ki stood at 7.15 µM.
Consider `Cc1ccc(-c2cc(C(F)(F)F)nn2-c2ccc(S(N)(=O)=O)cc2)cc1` [CLX], for which the Ki came to 1.4 µM.
Turning to `NS(=O)(=O)c1cc(Cl)c(Cl)c(S(N)(=O)=O)c1` [DCP], the Ki is 3.06 µM.
On to `NC(N)=Nc1nc(CSCCC(N)=NS(N)(=O)=O)cs1` [FAM], for which the Ki was > 10 µM.
Still for that read-out and setting: the figure for `NS(=O)(=O)c1cc2c(cc1Cl)NCNS2(=O)=O` [HCT] is 8.5 µM; for `NS(=O)(=O)c1ccc(S(=O)(=O)Nc2cccc3c(Cl)c[nH]c23)cc1` [IND] it is 0.87 µM.
Turning to `CC(=O)N=c1sc(S(N)(=O)=O)nn1C` [MZA], the Ki was determined as 3.9 µM.
`O=C1NS(=O)(=O)c2ccccc21` [SAC]: the Ki was 6.2 µM.
For `CCN1CCCC1CNC(=O)c1cc(S(N)(=O)=O)ccc1OC` (stereo not drawn) [SLP], the Ki stood at 4.85 µM.
Regarding `NS(=O)(=O)c1ccc(N2CCCCS2(=O)=O)cc1` [SLT], the Ki amounted to 0.67 µM.
On the same count and under the same terms, the figure for `CC1(C)O[C@@H]2[C@@H](CO[C@@]3(COS(N)(=O)=O)OC(C)(C)O[C@@H]23)O1` [TPM] is 3.83 µM.
In the case of `Cc1onc(-c2ccccc2)c1-c1ccc(S(N)(=O)=O)cc1` [VLX], the Ki was 0.77 µM.
As for `NS(=O)(=O)Cc1noc2ccccc12` [ZNS], the Ki was > 10 µM.
Regarding `Nc1ccc(S(N)(=O)=O)cc1` [compound 2, 2], the Ki was 4.62 µM.
As to `NS(=O)(=O)c1cccc(S(N)(=O)=O)c1` [compound 3, 3], the Ki was > 10 µM.
`Cc1ccc(S(N)(=O)=O)cc1` [compound 4, 4]: the Ki came to 4.04 µM.
Consider `NCc1ccc(S(N)(=O)=O)cc1` [compound 5, 5], for which the Ki is > 10 µM.
Consider `Nc1ccc(S(N)(=O)=O)cc1F` [compound 7, 7], for which the Ki came to 4.59 µM.
For the compound `Nc1ccc(S(N)(=O)=O)cc1Cl` [compound 8, 8], the Ki is > 10 µM.
On the same count and under the same terms, then `Nc1ccc(S(N)(=O)=O)cc1Br` [compound 9, 9], with > 10 µM.
With `NS(=O)(=O)c1cc(Cl)cc(Cl)c1O` [compound 10, 10], the Ki was > 10 µM.
`Nc1cc(C(F)(F)F)c(S(N)(=O)=O)cc1S(N)(=O)=O` [compound 11, 11]: the Ki was 6.76 µM.
As to `Nc1cc(Cl)c(S(N)(=O)=O)cc1S(N)(=O)=O` [compound 12, 12], the Ki was > 10 µM.
For the compound `Nc1nnc(S(N)(=O)=O)s1` [compound 13, 13], the Ki is > 10 µM.
Still for that read-out and setting: the figure for `Cn1nc(S(N)(=O)=O)sc1=N` [compound 14, 14] is > 10 µM.
For `NS(=O)(=O)c1ccc(O)cc1` [compound 15, 15], the Ki was > 10 µM.
Consider `NS(=O)(=O)c1ccc(CO)cc1` [compound 16, 16], for which the Ki was determined as 6.51 µM.
On to `NS(=O)(=O)c1ccc(CCO)cc1` [compound 17, 17], for which the Ki was > 10 µM.
With `NS(=O)(=O)c1ccc(C(=O)O)cc1` [compound 18, 18], the Ki is > 10 µM.
With `Nc1nccc(Nc2ccc(S(N)(=O)=O)cc2)n1` [compound 19, 19], the Ki turned out to be 7.79 µM.
For `Nc1ccc(S(=O)(=O)Nc2nnc(S(N)(=O)=O)s2)cc1` [compound 20, 20], the Ki was 0.91 µM.
For the compound `Nc1ccc(S(=O)(=O)Nc2ccc(S(N)(=O)=O)cc2)cc1` [compound 22, 22], the Ki is 3.74 µM.
Regarding `Nc1ccc(S(=O)(=O)NCc2ccc(S(N)(=O)=O)cc2)cc1` [compound 23, 23], the Ki was > 10 µM.
As to `Nc1ccc(S(=O)(=O)NCCc2ccc(S(N)(=O)=O)cc2)cc1` [compound 24, 24], the Ki is > 10 µM.
